Assay results from patent US20080139664A1, “ANTI-GLYCATION AGENTS FOR PREVENTING AGE-, DIABETES-, AND SMOKING-RELATED COMPLICATIONS” (NATIONAL RESEARCH COUNCIL OF CANADA, priority 2001, published 2008).
pIC50: −log10 of the molar value. Like-named read-outs stand apart in the source and are kept apart here.

Legend:
[1] = tested on: bovine serum albumin (BSA)
Procedure: (§1) During the glycation reaction between proteins and reducing sugars, a specific fluorescence with excitation and emission wavelength of 370 nm and 440 nm, respectively, is observed. […] The assay was based on the progressive development of the characteristic Maillard fluorescence (370 nm Ex and 440 nm Em) during the progress of the glycation reaction.
(§2) The final assay volume was 200 μl and each assay well contained 0.075 mM BSA, and 50 mM D-ribose. Compounds were assayed at 3 different concentration levels (0.003, 0.03, and 0.3 mg/mL) to determine the effect of concentration on inhibition. Samples were incubated for 5 days.
(§3) The Maillard fluorescence was directly measured from the reaction solution, except for the anti-glycants that quenched the Maillard fluorescence, which were analyzed by the earlier-described HPLC method.
(§4) Solutions were incubated in microtitre plates (96 wells) at 37° C. for 5 days in a closed system.
(§5) After one hour incubation at 37° C., fluorescence readings were taken.
(§6) The IC50 values of the compounds that quenched the fluorescence of the glycated BSA were analyzed by on-line monitoring of the fluorescence of the glycated BSA separated from the fluorescence quenching assay compound by RP-HPLC. The elution profile was monitored by UV-diode array and by fluorescence (λex=370 nm, λem=440 nm). […] The incubation conditions were the same as above.

lysozyme = assay: ESI-MS of lysozyme glycoforms after incubation with D-ribose; conditions: 37° C., 5 days; for Peak area as % of total area of all glycoforms, 14,569: lysozyme + 2D-ribose − 2H2O (14,569 Da); for Peak area as % of total area of all glycoforms, 14,551: lysozyme + 2D-ribose − 3H2O (14,551 Da); for Peak area as % of total area of all glycoforms, 14,533: lysozyme + 2D-ribose − 5H2O (14,533 Da); for Peak area as % of total area of all glycoforms, 14,515: lysozyme + 2D-ribose − 6H2O (14,515 Da); for Peak area as % of total area of all glycoforms, 14,419: lysozyme + D-ribose − 2H2O (14,419 Da); for Peak area as % of total area of all glycoforms, 14,401: lysozyme + D-ribose − 3H2O (14,401 Da); for Peak area as % of total area of all glycoforms, 14,437: lysozyme + D-ribose − H2O (14,437 Da); for Peak area as % of total area of all glycoforms, 14,496: lysozyme + D-ribose − H2O with one carboxymethylated Lys residue (14,496 Da); for Peak area as % of total area of all glycoforms, 14,364: lysozyme with one carboxymethylated Lys residue (14,364 Da); for Peak area as % of total area of all glycoforms, 14,305: unmodified lysozyme (14,305 Da);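 as to all read-outs here: lysozyme incubated with D-ribose, with or without anti-glycation agents, then separated by reversed-phase HPLC and analysed by electrospray mass spectrometry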
[2] = tested on: bovine serum albumin (BSA); assay: Maillard fluorescence-based assay of AGEs formation, IC50 determination (BSA + D-ribose); conditions: inhibition of Maillard fluorescence development; 0.075 mM BSA, 50 mM D-ribose, 37° C., 5 days
Procedure: as §1, §2, §3, §4, §5, §6

SMILES: O=C1C[C@@H](c2ccc(O)cc2)Oc2cc(O)cc(O)c21 [Naringenin]
- pIC50 [1]: 3.66
- Peak area as % of total area of all glycoforms, 14,569 (lysozyme): 4.9%
- Peak area as % of total area of all glycoforms, 14,551 (lysozyme): 3.1%
- Peak area as % of total area of all glycoforms, 14,533 (lysozyme): 1.8%
- Peak area as % of total area of all glycoforms, 14,515 (lysozyme): 0.0%
- Peak area as % of total area of all glycoforms, 14,419 (lysozyme): 7.5%
- Peak area as % of total area of all glycoforms, 14,401 (lysozyme): 0.0%
- Peak area as % of total area of all glycoforms, 14,437 (lysozyme): 24.4%
- Peak area as % of total area of all glycoforms, 14,496 (lysozyme): 0.0%
- Peak area as % of total area of all glycoforms, 14,364 (lysozyme): 0.1%
- Peak area as % of total area of all glycoforms, 14,305 (lysozyme): 56.8%

SMILES: O=C1CN(/N=C/c2ccc(-c3ccc([N+](=O)[O-])cc3)o2)C(O)=N1 [Dantrolene]
- pIC50 [2]: 4.00

SMILES: COc1cc(/C=C/C(=O)CC(=O)/C=C/c2ccc(O)c(OC)c2)ccc1O [Curcumin]
- pIC50 [1]: 2.96

SMILES: O=[N+]([O-])c1ccc(O)c(Cl)c1 [2-Chloro-4-nitrophenol]
- pIC50 [1]: 2.46

SMILES: Oc1c(Br)cc(Br)c2cccnc12 [Broxyquinoline]
- pIC50 [1]: 3.41
- Peak area as % of total area of all glycoforms, 14,569 (lysozyme): 5.7%
- Peak area as % of total area of all glycoforms, 14,551 (lysozyme): 4.7%
- Peak area as % of total area of all glycoforms, 14,533 (lysozyme): 3.2%
- Peak area as % of total area of all glycoforms, 14,515 (lysozyme): 1.7%
- Peak area as % of total area of all glycoforms, 14,419 (lysozyme): 7.2%
- Peak area as % of total area of all glycoforms, 14,401 (lysozyme): 4.9%
- Peak area as % of total area of all glycoforms, 14,437 (lysozyme): 21.0%
- Peak area as % of total area of all glycoforms, 14,496 (lysozyme): 1.5%
- Peak area as % of total area of all glycoforms, 14,364 (lysozyme): 2.5%
- Peak area as % of total area of all glycoforms, 14,305 (lysozyme): 42.2%

SMILES: CC(C)C(=O)Nc1ccc([N+](=O)[O-])c(C(F)(F)F)c1 [Flutamide]
- pIC50 [1]: 2.89

SMILES: O=C(N[C@H](CO)[C@H](O)c1ccc([N+](=O)[O-])cc1)C(Cl)Cl [Chloramphenicol]
- pIC50 [1]: 2.89

SMILES: CCS(=O)(=O)CCn1c([N+](=O)[O-])cnc1C [Tinidazole]
- pIC50 [1]: 3.15

SMILES: CC(C)(C)NCC(O)c1cc(O)cc(O)c1 (stereo not drawn) [Terbutaline]
- pIC50 [1]: < 2.40

SMILES: O=c1c(O)c(-c2cc(O)c(O)c(O)c2)oc2cc(O)cc(O)c12 [Myricetin]
- pIC50 [1]: 4.27
- maximum percentage of the inhibition [1]: 64%)
- Peak area as % of total area of all glycoforms, 14,569 (lysozyme): 0.0%
- Peak area as % of total area of all glycoforms, 14,551 (lysozyme): 0.0%
- Peak area as % of total area of all glycoforms, 14,533 (lysozyme): 0.0%
- Peak area as % of total area of all glycoforms, 14,515 (lysozyme): 0.0%
- Peak area as % of total area of all glycoforms, 14,419 (lysozyme): 1.8%
- Peak area as % of total area of all glycoforms, 14,401 (lysozyme): 0.0%
- Peak area as % of total area of all glycoforms, 14,437 (lysozyme): 17.7%
- Peak area as % of total area of all glycoforms, 14,496 (lysozyme): 0.0%
- Peak area as % of total area of all glycoforms, 14,364 (lysozyme): 1.6%
- Peak area as % of total area of all glycoforms, 14,305 (lysozyme): 78.9%

SMILES: O=C1CN(/N=C/c2ccc([N+](=O)[O-])o2)C(=O)N1 [Nitrofurantoin]
- pIC50 [1]: 4.36
- maximum percentage of the inhibition [1]: 40%)

SMILES: O=c1cc(-c2ccc(O)cc2)oc2cc(O)cc(O)c12 [Apigenin]
- pIC50 [1]: 3.89

SMILES: CC1=C(/C=C/C(C)=C/C=C/C(C)=C/C=C/C=C(C)/C=C/C=C(C)/C=C/C2=C(C)CCCC2(C)C)C(C)(C)CCC1 [beta-Carotene]
- pIC50 [1]: 3.20

SMILES: COc1cc(C2Oc3cc([C@H]4Oc5cc(O)cc(O)c5C(=O)[C@@H]4O)ccc3OC2CO)ccc1O (stereo partly drawn) [Silibinin]
- pIC50 [1]: 3.12

SMILES: COC(=O)C1=C(C)NC(C)=C(C(=O)OCCN(C)Cc2ccccc2)C1c1cccc([N+](=O)[O-])c1 (stereo not drawn) [Nicardipine]
- pIC50 [1]: < 2.40

SMILES: CN(C)c1ccc(O)c2c1C[C@H]1C[C@H]3[C@H](N(C)C)C(O)=C(C(N)=O)C(=O)[C@@]3(O)C(O)=C1C2=O [Minocycline]
- pIC50 [1]: 4.34

SMILES: Cn1cnc([N+](=O)[O-])c1Sc1ncnc2nc[nH]c12 [Azathioprine]
- pIC50 [1]: 3.40

SMILES: NC(=O)NO [Hydroxyurea]
- pIC50 [1]: < 2.40

SMILES: Oc1c(Cl)cc(Cl)c2cccnc12 [Chloroxine]
- pIC50 [1]: 2.85

SMILES: CC(C)=CCC1=C(O)C(=O)c2ccccc2C1=O [Lapachol]
- pIC50 [1]: 3.49

SMILES: Nc1c(Cl)cc([N+](=O)[O-])cc1Cl [Botran]
- pIC50 [1]: < 2.40

SMILES: O=c1c(-c2ccc(O)cc2)coc2cc(O)ccc12 [Daidzein]
- pIC50 [1]: < 2.40

SMILES: COc1cccc2c1cc([N+](=O)[O-])c1c(C(=O)O)cc3c(c12)OCO3 [Aristolochic acid]
- pIC50 [1]: < 2.40

SMILES: O=c1cc(CO)occ1O [Kojic acid]
- pIC50 [1]: < 2.40

SMILES: CO[C@H]1/C=C/O[C@@]2(C)Oc3c(C)c(O)c4c(O)c(c(/C=N/N5CCN(C)CC5)c(O)c4c3C2=O)NC(=O)/C(C)=C\C=C\[C@H](C)[C@H](O)[C@@H](C)[C@@H](O)[C@@H](C)[C@H](OC(C)=O)[C@@H]1C [Rifampicin]
- pIC50 [1]: 3.92

SMILES: Cc1cc(O)c2c(c1)C(=O)c1cc(O)cc(O)c1C2=O [Emodin]
- pIC50 [1]: 2.52

SMILES: Oc1ccc(O)cc1 [Hydroquinone]
- pIC50 [1]: 3.60

SMILES: O=C(Cn1ccnc1[N+](=O)[O-])NCCO [Etanidazole]
- pIC50 [1]: 3.35

SMILES: Cc1ncc([N+](=O)[O-])n1CCO [Metronidazole]
- pIC50 [1]: 3.18

SMILES: O=C(O)c1cc(/N=N/c2ccc(S(=O)(=O)Nc3ccccn3)cc2)ccc1O [Sulfasalazine]
- Peak area as % of total area of all glycoforms, 14,569 (lysozyme): 4.7%
- Peak area as % of total area of all glycoforms, 14,551 (lysozyme): 4.7%
- Peak area as % of total area of all glycoforms, 14,533 (lysozyme): 2.1%
- Peak area as % of total area of all glycoforms, 14,515 (lysozyme): 1.3%
- Peak area as % of total area of all glycoforms, 14,419 (lysozyme): 8.2%
- Peak area as % of total area of all glycoforms, 14,401 (lysozyme): 2.7%
- Peak area as % of total area of all glycoforms, 14,437 (lysozyme): 20.6%
- Peak area as % of total area of all glycoforms, 14,496 (lysozyme): 1.5%
- Peak area as % of total area of all glycoforms, 14,364 (lysozyme): 2.9%
- Peak area as % of total area of all glycoforms, 14,305 (lysozyme): 47.2%

SMILES: O=[N+]([O-])c1cccc(SSc2cccc([N+](=O)[O-])c2)c1 [Nitrophenide]
- pIC50 [1]: 2.40

SMILES: Cc1ncc([N+](=O)[O-])n1C [Dimetridazole]
- pIC50 [1]: 3.34

SMILES: COCCOC(=O)C1=C(C)NC(C)=C(C(=O)OC(C)C)C1c1cccc([N+](=O)[O-])c1 (stereo not drawn) [Nimodipine]
- pIC50 [1]: < 2.40

SMILES: COc1ccc2c(c1)c(CC(=O)O)c(C)n2C(=O)c1ccc(Cl)cc1 [Indomethacin]
- Peak area as % of total area of all glycoforms, 14,569 (lysozyme): 3.5%
- Peak area as % of total area of all glycoforms, 14,551 (lysozyme): 3.3%
- Peak area as % of total area of all glycoforms, 14,533 (lysozyme): 1.6%
- Peak area as % of total area of all glycoforms, 14,515 (lysozyme): 0.0%
- Peak area as % of total area of all glycoforms, 14,419 (lysozyme): 7.5%
- Peak area as % of total area of all glycoforms, 14,401 (lysozyme): 0.5%
- Peak area as % of total area of all glycoforms, 14,437 (lysozyme): 18.6%
- Peak area as % of total area of all glycoforms, 14,496 (lysozyme): 0.0%
- Peak area as % of total area of all glycoforms, 14,364 (lysozyme): 5.1%
- Peak area as % of total area of all glycoforms, 14,305 (lysozyme): 58.0%

SMILES: COC(=O)c1ccc(O)c(N)c1 [Orthoform]
- pIC50 [1]: 2.68

SMILES: O=c1cc(-c2ccccc2)oc2cc(O)cc(O)c12 [Chrysin]
- pIC50 [1]: 2.68

SMILES: CC(NCCc1ccc(O)cc1)C(O)c1ccc(O)cc1 (stereo not drawn) [Ritodrine]
- pIC50 [1]: < 2.40

SMILES: CC(C(O)c1ccc(O)cc1)N1CCC(Cc2ccccc2)CC1 (stereo not drawn) [Ifenprodil]
- pIC50 [1]: < 2.40

SMILES: Cc1c(C(N)=O)cc([N+](=O)[O-])cc1[N+](=O)[O-] [Dinitolmide]
- pIC50 [1]: 3.47
- Peak area as % of total area of all glycoforms, 14,569 (lysozyme): 4.9%
- Peak area as % of total area of all glycoforms, 14,551 (lysozyme): 3.6%
- Peak area as % of total area of all glycoforms, 14,533 (lysozyme): 2.6%
- Peak area as % of total area of all glycoforms, 14,515 (lysozyme): 1.3%
- Peak area as % of total area of all glycoforms, 14,419 (lysozyme): 7.4%
- Peak area as % of total area of all glycoforms, 14,401 (lysozyme): 0.0%
- Peak area as % of total area of all glycoforms, 14,437 (lysozyme): 22.6%
- Peak area as % of total area of all glycoforms, 14,496 (lysozyme): 0.0%
- Peak area as % of total area of all glycoforms, 14,364 (lysozyme): 3.0%
- Peak area as % of total area of all glycoforms, 14,305 (lysozyme): 51.7%

SMILES: CNCC(O)c1ccc(O)cc1 (stereo not drawn) [Synephrine]
- pIC50 [1]: < 2.40

SMILES: CNC(=C[N+](=O)[O-])NCCSCc1ccc(CN(C)C)o1 [Ranitidine]
- pIC50 [1]: 2.96

SMILES: O=c1cc(-c2ccc(O)c(O)c2)oc2cccc(O)c12 [5,3′,4′-Trihydroxyflavone]
- pIC50 [1]: 2.80

SMILES: CN1C(C(=O)Nc2ccccn2)=C(O)c2ccccc2S1(=O)=O [Piroxicam]
- pIC50 [1]: 3.14

SMILES: C[C@H]1c2cccc(O)c2C(=O)C2=C(O)[C@]3(O)C(=O)C(C(N)=O)=C(O)[C@@H](N(C)C)[C@@H]3[C@@H](O)[C@@H]21 [Doxycycline]
- pIC50 [1]: 4.48

SMILES: O=S1(=O)OC(c2ccc(O)cc2)(c2ccc(O)cc2)c2ccccc21 [Phenol red]
- pIC50 [1]: 2.74
